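Interpolation was linear, between the two tested concentrations surrounding the appropriate level; five concentrations were tested over 48 hours in 96-well plates. GI50 marks 50% less growth.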 The source made the active and inactive calls. Cut-off read from the data, not from the text of the source: active = GI50 up to about 1.1 µM and inactive = higher.
Assays:
Assay in all cases: DTP human tumour cell line panel, 48 h
BT-549 = tested on: BT-549
COLO 205 = tested on: COLO 205
DU-145 = tested on: DU-145
HCT-116 = tested on: HCT-116
HCT-15 = tested on: HCT-15
HOP-62 = tested on: HOP-62
LOX IMVI = tested on: LOX IMVI
MCF7 = tested on: MCF7
MDA-N = tested on: MDA-N
Malme-3M = tested on: Malme-3M
NCI-H522 = tested on: NCI-H522
OVCAR-3 = tested on: OVCAR-3
OVCAR-5 = tested on: OVCAR-5
SF-295 = tested on: SF-295
SN12C = tested on: SN12C
SR = tested on: SR
A498 = tested on: A498
HCC 2998 = tested on: HCC 2998
HOP-92 = tested on: HOP-92
MOLT-4 = tested on: MOLT-4

SMILES	GI50 (BT-549)	GI50 (COLO 205)	GI50 (DU-145)	GI50 (HCT-116)	GI50 (HCT-15) [µM]	GI50 (HOP-62)	GI50 (LOX IMVI)	GI50 (MCF7)	GI50 (MDA-N)	GI50 (Malme-3M)	GI50 (NCI-H522)	GI50 (OVCAR-3)	GI50 (OVCAR-5)	GI50 (SF-295)	GI50 (SN12C)	GI50 (SR)	GI50 (A498)	GI50 (HCC 2998)	GI50 (HOP-92)	GI50 (MOLT-4)
CN(c1ccccc1)S(=O)(=O)c1ccc([N+](=O)[O-])cc1	> 100 µM (inactive)	> 100 µM (inactive)	> 100 µM (inactive)	> 100 µM (inactive)	> 100	> 100 µM (inactive)	> 100 µM (inactive)	> 100 µM (inactive)	> 100 µM (inactive)	40.6 µM (inactive)	> 100 µM (inactive)	> 100 µM (inactive)	> 100 µM (inactive)	> 100 µM (inactive)	> 100 µM (inactive)	> 100 µM (inactive)				
COc1ccc2c(c1)/C(=C\c1c(-c3ccccc3)nc3n1CCS3)C(=O)N2	9.51 µM (inactive)	3.27 µM (inactive)	16.3 µM (inactive)	5.01 µM (inactive)	4.38	10.5 µM (inactive)	7.64 µM (inactive)	4.62 µM (inactive)	1.87 µM (inactive)	12.2 µM (inactive)	4.63 µM (inactive)	3.82 µM (inactive)	14.8 µM (inactive)	3.79 µM (inactive)	12.4 µM (inactive)		5.05 µM (inactive)	10.6 µM (inactive)	12.9 µM (inactive)	2.78 µM (inactive)
S=C(c1c[nH]c2ccccc12)N1CCOCC1	> 100 µM (inactive)	> 100 µM (inactive)	> 100 µM (inactive)	> 100 µM (inactive)	> 100	> 100 µM (inactive)	> 100 µM (inactive)	> 100 µM (inactive)	> 100 µM (inactive)	25 µM (inactive)		> 100 µM (inactive)	> 100 µM (inactive)	> 100 µM (inactive)	> 100 µM (inactive)	> 100 µM (inactive)	> 100 µM (inactive)			> 100 µM (inactive)
Cc1cc(N(CCC#N)CCC#N)ccc1C(/N=N/c1ccc([N+](=O)[O-])cc1)=N\NC(=O)c1ccccc1	37.5 µM (inactive)	35.2 µM (inactive)	48 µM (inactive)	31.8 µM (inactive)	30.1	87.5 µM (inactive)		25.8 µM (inactive)	6.25 µM (inactive)	56.9 µM (inactive)	17 µM (inactive)	46.1 µM (inactive)	> 100 µM (inactive)	19.5 µM (inactive)	43.3 µM (inactive)	14.2 µM (inactive)	25.9 µM (inactive)	40.5 µM (inactive)		45.2 µM (inactive)
CC(=O)Nc1nnc(S(C)(=O)=O)s1	> 100 µM (inactive)	> 100 µM (inactive)	> 100 µM (inactive)	> 100 µM (inactive)	> 100	> 100 µM (inactive)		> 100 µM (inactive)	> 100 µM (inactive)	> 100 µM (inactive)		> 100 µM (inactive)	> 100 µM (inactive)	> 100 µM (inactive)	> 100 µM (inactive)	> 100 µM (inactive)	> 100 µM (inactive)		> 100 µM (inactive)	> 100 µM (inactive)
Oc1ccc2ccccc2c1-c1nnc(CCCCCCCCc2nnc(-c3c(O)ccc4ccccc34)o2)o1	23.1 µM (inactive)	15.3 µM (inactive)	5.08 µM (inactive)	1.18 µM (inactive)	0.815	1.59 µM (inactive)	1.01 µM (active)	8.95 µM (inactive)	4.23 µM (inactive)	3.1 µM (inactive)	0.63 µM (active)	0.314 µM (active)	6.32 µM (inactive)	3.61 µM (inactive)	1.21 µM (inactive)		16.5 µM (inactive)	4.06 µM (inactive)	9.82 µM (inactive)	0.449 µM (active)
C[C@]12CC[C@@H]3c4cc(Br)c(O)c(Br)c4CC[C@H]3[C@@H]1CC(Br)C2=O (some centres not stated)	5 µM (inactive)	7.87 µM (inactive)	23.4 µM (inactive)	3.66 µM (inactive)	2.65		3.57 µM (inactive)	5.61 µM (inactive)	5.79 µM (inactive)	15.2 µM (inactive)		2.58 µM (inactive)	22.1 µM (inactive)	16.6 µM (inactive)	4.53 µM (inactive)		23.3 µM (inactive)	1.99 µM (inactive)	20.7 µM (inactive)	2.53 µM (inactive)
COc1cccc2c1C1(O)C2CCCCCCCCCC12OCCCO2 (configuration not stated)	92 µM (inactive)	> 33.8 µM (inactive)	92.7 µM (inactive)	6.81 µM (inactive)	4.93	> 38.3 µM (inactive)	10.5 µM (inactive)	19.8 µM (inactive)	35.2 µM (inactive)	> 47 µM (inactive)	> 50.2 µM (inactive)	> 40.2 µM (inactive)	> 40.7 µM (inactive)	15.1 µM (inactive)	> 49.7 µM (inactive)	3 µM (inactive)	> 58.2 µM (inactive)	> 34.2 µM (inactive)		6.3 µM (inactive)

From ChEMBL document CHEMBL1201862, “PubChem BioAssay data set” (2004)
